Reference: patent US20070110726A1, “Rust disease control by Aphanocladium album and/or Beauveria brongniartii” (priority 2005, published 2007)
Starred links: 1 amine or outer side, 2 acyl side, 3 side chain; linkers in the order of their positions; H or OH if unused. Positions of bridges follow the written chain, without caps; N, C: chain ends. Non-standard residues stand in square brackets, D forms with d. Residues, ends and D or L forms follow the SMILES beside them. Chains are numbered I, II in the order given. Actinocin(9to1) = Cc1c2oc3c(C)ccc(C(=O)[*:1])c3nc-2c(C(=O)[*:2])c(N)c1=O; NMeV = CN[C@H](C(=O)O)C(C)C; Sar = CNCC(=O)O

Legend:
K-562 cells = assay: MTS cytotoxicity assay; type: cell-based; details: 3 days exposure
Text: di-Methylthiozol Tetrazolium (MTT assay): Proliferation assays are used in cell biology for the study of growth factors, cytokines and cytotoxic agents. There are several ways to measure the number of cells in a proliferation assay. MTT assay is a rapid and convenient method of determining viable cells in proliferation, cell attachment, chemotaxis and apoptosis assays.
di-Methylthiozol Tetrazolium Salt (MTS assay): MTS assay is a rapid and convenient method of determining viable cells in proliferation or cytotoxic assays. The use of this analog of MTT, provides a stable reaction over time. MTS assay is based on the cellular conversion of a tetrazolium salt into a formozan product that is soluble in tissue culture media and can easily be detected using a 96-well plate reader. This conversion is presumably accomplished by NADPH or NADH produced by dehydrogenases enzymes present in metabolically active cells. MTS is preferred over MTT because the MTS formazan product is soluble in tissue culture medium. In addition the MTS assay require fewer steps than MTT assay. Consequently, we have used MTS for our testing. MTS assay-Method: K-562 (typical cancer cell line used for cytotoxicity assays) cells were seeded in 96-well plates at a concentration of 2.5×10^4 cells/ml. Oosporein and Actinomycin D (a known cytotoxic compound) were prepared in 10% DMSO and added to cells the next day (final DMSO concentration was 0.5%). Oosporein was assessed at a final concentration on the cells of 100, 50, 25, 12.5, 6.25 and 3.125 μg/ml (2-fold dilutions) in quadruplicate. A known toxic agent, Actinomycin D, was added at 100, 20, 4, 0.8 and 0.16 ng/ml (5-fold dilutions). After 3 days exposure to test compound or controls, MTS reagent was prepared and added to the cells. After 3 hours, the accumulation of formazan product was determined by measuring the absorbance at 490 nm. The background absorbance of the cells detected at 630 nm was then subtracted from the initial 490 nm reading. Percent toxicity was determined using the following formula: [formula] [formula] […]

[1] = test system: strain NC of Puccinia coronata; assay: Greenhouse experiment, pure compound Oosporein sprayed on inoculated oat seedlings (telia induction); type: in vivo, Puccinia coronata on oat (cv. Brooks) seedlings; details: table title strain NC (method text: strain MN); for Percentage of plants with telia: oat cv. Brooks seedlings, pure compound at 100 μg/ml applied four days after inoculation, mean of five replicates; for Telia intensity Rating: scale 0 = healthy to 3.0 = >15% of leaf area with telia, pure compound 100 μg/ml
Description: iv) Both crude extracts and fractions were tested at 10 mg/ml and the pure compound at 100 μg/ml
1.c. Greenhouse Experiments with the Pure Compound, Oosporein Isolated from of A. album (Aa 100 Isolate):
The pure compound (Oosporein) isolated from A. album (Aa 100) dissolved in 500 μl of DMSO and 9.5 ml of sterile distilled water (SDW) with 20 μl of Tween 80. The controls consisted of 500 μl of DMSO in 9.5 ml of SDW with 20 μl of Tween 80. and 10 ml of SDW with 20 μl of Tween 80. Ten ml of each treatment were atomized on 2-3 week-old, oat seedlings previously inoculated with strain MN of Puccinia coronata. Treatments were applied four days after inoculation when flecking symptoms of infection were present, but before uredia were observed (FIG. 1). There were five replicates of each treatment arranged in a randomized complete block design.

rusts = assay: Conversion of infective urediniospores to non-infective teliospores in rusts

| Structure (SMILES) | toxicity on K-562 cells (K-562 cells; 25 μg/ml or less) | toxicity on K-562 cells (K-562 cells; 100 and 50 μg/ml) | Percentage of plants with telia [1] [%] | Percentage of plants with telia ([1]; listed as Ooosporein) | Telia intensity Rating [1] | Telia intensity Rating ([1]; listed as Ooosporein) | time to conversion of infective urediniospores to non-infective teliospores (rusts; after application) | conversion of infective urediniospores to non-infective teliospores (rusts; oat, bareley, wheat, pine and soybean rust) | Percent toxicity on K-562 cells (K-562 cells; 100 ng/ml) [%] |
| --- | --- | --- | --- | --- | --- | --- | --- | --- | --- |
| CC1=C(O)C(=O)C(C2=C(O)C(=O)C(C)=C(O)C2=O)=C(O)C1=O [Oosporein] | no toxicity whatsoever | very mild toxicity | 83 | higher percentage of plants with telia | 8.2 | greater intensity of telia | with in three days of application | convert infective urediniospores to non-infective teliospores | – |
| Cc1c2oc3c(C)ccc(C(=O)N[C@@H]4C(=O)N[C@H](C(C)C)C(=O)N5CCC[C@H]5C(=O)N(C)CC(=O)N(C)[C@@H](C(C)C)C(=O)O[C@@H]4C)c3nc-2c(C(=O)N[C@@H]2C(=O)N[C@H](C(C)C)C(=O)N3CCC[C@H]3C(=O)N(C)CC(=O)N(C)[C@@H](C(C)C)C(=O)O[C@@H]2C)c(N)c1=O [Actinomycin D, reference compound] (I: T[dV]P[Sar][NMeV] / II: T[dV]P[Sar][NMeV]; ester I:1-I:C, II:1-II:C; linker I:N-II:N via Actinocin(9to1)) | – | – | – | – | – | – | – | – | ~100 |
